Data set [1] relates to Rat. Nature of the data set: concentration in plasma after dosing. As to conditions: 4 h; dosed: Wyeth-14643; 5.0 mg/kg; oral; Male; Sprague-Dawley.
Data set [2] deals with Rat. As to the kind of experiment: concentration in plasma after dosing. As to conditions: 1 h; dosed: Wyeth-14643; 2.0 mg/kg; iv; Male; Sprague-Dawley.
The test system of data set [3] is Rat. As to the kind of experiment: concentration in plasma after dosing. To be noted: 3 h; dosed: Bis 2-Chloroethoxy Methane; 40 mg/kg; iv; Male; Harlan Sprague Dawley.
The test system of data set [4] is Rat. Nature of the data set: concentration in heart after dosing. To be noted: 40 min; dosed: Bis 2-Chloroethoxy Methane; 20 mg/kg; iv; Male; F344.
Data set [5] deals with Rat. As to the kind of experiment: concentration in thymus after dosing. To be noted: 5 h; dosed: Bis 2-Chloroethoxy Methane; 20 mg/kg; iv; Male; F344.
Data set [6] has as its system Rat. As to the kind of experiment: concentration in liver after dosing. As to conditions: 5 h; dosed: Bis 2-Chloroethoxy Methane; 20 mg/kg; iv; Male; F344.
The test system of data set [7] is Rat. Nature of the data set: concentration in thymus after dosing. To be noted: 8 h; dosed: Bis 2-Chloroethoxy Methane; 20 mg/kg; iv; Female; Harlan Sprague-Dawley.
Data set [8] concerns Rat. As to the kind of experiment: concentration in liver after dosing. To be noted: 6 h; dosed: Fluorotelomer alcohol 8+2; 80 mg/kg; oral; Female; Harlan Sprague Dawley.
Data set [9] concerns Rat. Nature of the data set: concentration in brain after dosing. To be noted: 6 h; dosed: Fluorotelomer alcohol 8+2; 24 mg/kg; oral; Male; Harlan Sprague Dawley.
Data set [10] has as its system Rat. Nature of the data set: concentration in kidney after dosing. To be noted: 6 h; dosed: Fluorotelomer alcohol 8+2; 24 mg/kg; oral; Male; Harlan Sprague Dawley.
The test system of data set [11] is Rat. As to the kind of experiment: concentration in plasma after dosing. To be noted: dosed: Fluorotelomer alcohol 8+2, 12 mg/kg, iv, Male, F344.
The test system of data set [12] is Rat. Nature of the data set: concentration in kidney after dosing. As to conditions: 12 h; dosed: Fluorotelomer alcohol 8+2; 24 mg/kg; oral; Male; Harlan Sprague Dawley.
Data set [13] relates to Rat. Nature of the data set: concentration in liver after dosing. To be noted: 3 h; dosed: Fluorotelomer alcohol 8+2; 80 mg/kg; oral; Female; Harlan Sprague Dawley.
The test system of data set [14] is Rat. Nature of the data set: concentration in plasma after dosing. As to conditions: 3 h; dosed: Fluorotelomer alcohol 8+2; 12 mg/kg; iv; Male; F344.
The test system of data set [15] is Rat. As to the kind of experiment: concentration in plasma after dosing. To be noted: 20 h; dosed: Di-n-butyl phthalate; 100 mg/kg; oral; Male; Sprague-Dawley.
Data set [16] has as its system Rat. As to the kind of experiment: concentration in plasma after dosing. To be noted: 0.25 h; dosed: Di-n-butyl phthalate; 100 mg/kg; oral; Male; Sprague-Dawley.
The subject of data set [17] is Rat. As to the kind of experiment: concentration in plasma after dosing. As to conditions: 1 h; dosed: Di-n-butyl phthalate; 20 mg/kg; iv; Male; Sprague-Dawley.
Data set [18] deals with Rat. Nature of the data set: concentration in plasma after dosing. As to conditions: 40 min; dosed: Di-n-butyl phthalate; 20 mg/kg; iv; Male; Sprague-Dawley.
Data set [19] relates to Rat. As to the kind of experiment: concentration in plasma after dosing. To be noted: 15 h; dosed: Di-n-butyl phthalate; 100 mg/kg; oral; Male; Sprague-Dawley.
Data set [20] deals with Rat. Nature of the data set: concentration in liver after dosing. To be noted: 1 h; dosed: Perfluorodecanoic acid; 10 mg/kg; oral; Female; Harlan Sprague Dawley.
Data set [21] has as its system Rat. Nature of the data set: concentration in plasma after dosing. As to conditions: dosed: Perfluorodecanoic acid, 2 mg/kg, iv, Male, F344.
Data set [22] deals with Rat. As to the kind of experiment: concentration in plasma after dosing. As to conditions: 9 h; dosed: Primidone; 80 mg/kg; oral; Female; F344.
In data set [23] the test system is Rat. As to the kind of experiment: concentration in plasma after dosing. As to conditions: 12 h; dosed: Primidone; 80 mg/kg; oral; Female; Harlan Sprague-Dawley.
Data set [24] deals with Rat. As to the kind of experiment: concentration in plasma after dosing. To be noted: 0.25 h; dosed: Primidone; 80 mg/kg; oral; Female; Harlan Sprague-Dawley.
Data set [25] concerns Rat. Nature of the data set: concentration in plasma after dosing. To be noted: 0.5 h; dosed: Primidone; 30 mg/kg; oral; Male; F344.
Data set [26] deals with Rat. As to the kind of experiment: concentration in liver after dosing. To be noted: 2 h; dosed: Thiodiglycolic Acid; 20 mg/kg; iv; Female; Harlan Sprague Dawley.
Data set [27] deals with Rat. As to the kind of experiment: concentration in liver after dosing. As to conditions: 4 h; dosed: Thiodiglycolic Acid; 20 mg/kg; iv; Male; Harlan Sprague Dawley.
For data set [28], the system named is Rat. Nature of the data set: concentration in liver after dosing. To be noted: 5.333 h; dosed: Thiodiglycolic Acid; 20 mg/kg; iv; Female; Harlan Sprague Dawley.
For data set [29], the system named is Rat. As to the kind of experiment: concentration in plasma after dosing. To be noted: 3 h; dosed: Thiodiglycolic Acid; 20 mg/kg; iv; Female; Harlan Sprague Dawley.
The test system of data set [30] is Rat. Nature of the data set: concentration in heart after dosing. As to conditions: 1 h; dosed: Thiodiglycolic Acid; 20 mg/kg; iv; Male; Harlan Sprague Dawley.
Data set [31] has as its system Rat. Nature of the data set: concentration in heart after dosing. As to conditions: 3 h; dosed: Thiodiglycolic Acid; 20 mg/kg; iv; Female; Harlan Sprague Dawley.
Data set [32] deals with Rat. Nature of the data set: concentration in plasma after dosing. To be noted: 4 h; dosed: Thiodiglycolic Acid; 20 mg/kg; iv; Female; Harlan Sprague Dawley.
The test system of data set [33] is Rat. Nature of the data set: concentration in heart after dosing. As to conditions: 3 h; dosed: Thiodiglycolic Acid; 20 mg/kg; iv; Male; Harlan Sprague Dawley.
The subject of data set [34] is Rat. Nature of the data set: concentration in plasma after dosing. To be noted: 20 min; dosed: Thiodiglycolic Acid; 20 mg/kg; iv; Female; Harlan Sprague Dawley.
For data set [35], the system named is Rat. As to the kind of experiment: concentration in plasma after dosing. As to conditions: 1 h; dosed: Thiodiglycolic Acid; 20 mg/kg; iv; Female; Harlan Sprague Dawley.
Data set [36] relates to Rat. Nature of the data set: concentration in heart after dosing. As to conditions: 3 h; dosed: Thiodiglycolic Acid; 20 mg/kg; iv; Female; Harlan Sprague Dawley. This is another data set of the same source.
In data set [37] the test system is Rat. As to the kind of experiment: concentration in liver after dosing. As to conditions: 4 h; dosed: Thiodiglycolic Acid; 20 mg/kg; iv; Female; Harlan Sprague Dawley.
In data set [38] the test system is Rat. As to the kind of experiment: concentration in plasma after dosing. To be noted: 0.25 h; dosed: dichloroacetic acid; 10 mg/kg; oral; Male; Harlan Sprague Dawley.
Data set [39] deals with Rat. As to the kind of experiment: concentration in plasma after dosing. To be noted: 20 min; dosed: dichloroacetic acid; 10 mg/kg; iv; Male; F344.
Data set [40] has as its system Rat. As to the kind of experiment: concentration in plasma after dosing. As to conditions: 40 min; dosed: dichloroacetic acid; 40 mg/kg; oral; Female; Harlan Sprague Dawley.

The source of these data is EPA's CvTdb concentration-time database.

As for `Cc1cccc(Nc2cc(Cl)nc(SCC(=O)O)n2)c1C`, the results for the concentration in plasma in the data set on Rat [1] and in the data set on Rat [2] were 1200 ng/mL and 2190 ng/mL, respectively.

As for `ClCCOCOCCCl` [Bis 2-Chloroethoxy Methane], the concentration in plasma in the data set on Rat [3] was 287 ng/mL. The compound further displayed a concentration in heart in the data set on Rat [4] of 7270 ng/g. The concentration in thymus with Rat [5] stood at 78.9 ng/g; in the data set with Rat [7] it was 13.2 ng/g. In the data set on Rat [6], the concentration in liver was 33.4 ng/g.

In the case of `OCCC(F)(F)C(F)(F)C(F)(F)C(F)(F)C(F)(F)C(F)(F)C(F)(F)C(F)(F)F` [Fluorotelomer alcohol 8+2], the results for the concentration in liver with Rat [8] and in the data set with Rat [13] were 2020 ng/g and 13000 ng/g, respectively. Further, in the data set on Rat [9], the concentration in brain amounted to 323 ng/g. The concentration in kidney was determined as 366 ng/g with Rat [10] and 187 ng/g in the data set with Rat [12]. Moreover, the concentration in plasma in the data set with Rat [11] (0.75 h) amounted to 756 ng/mL; in the data set with Rat [11] (12 h), 13.3 ng/mL; with Rat [14], 106 ng/mL.

In the case of `CCCCOC(=O)c1ccccc1C(=O)O` [Mono-n-butyl phthalate], the concentration in plasma in the data set on Rat [15] worked out at 414 ng/mL; with Rat [16], 31700 ng/mL; in the data set with Rat [17], 2550 ng/mL; in the data set with Rat [18], 5350 ng/mL; in the data set with Rat [19], 900 ng/mL.

`O=C(O)C(F)(F)C(F)(F)C(F)(F)C(F)(F)C(F)(F)C(F)(F)C(F)(F)C(F)(F)C(F)(F)F` [Perfluorodecanoic acid] displayed a concentration in liver in the data set on Rat [20] of 48900 ng/g. Moreover, the concentration in plasma in the data set on Rat [21] (6 h) was determined as 6240 ng/mL; in the data set with Rat [21] (864 h), 2140 ng/mL.

Take `CCC1(c2ccccc2)C(=O)NC(=O)NC1=O` [Phenobarbital]: the concentration in plasma in the data set on Rat [22] worked out at 2370 ng/mL; in the data set with Rat [23] it was 5830 ng/mL; in the data set with Rat [24], 400 ng/mL; in the data set on Rat [25] it was 330 ng/mL.

In the case of `O=C(O)CSCC(=O)O` [Thiodiglycolic Acid], the concentration in liver turned out to be 25500 ng/g in the data set with Rat [26], 43400 ng/g in the data set on Rat [27], 4800 ng/g with Rat [28] and 3490 ng/g in the data set with Rat [37]. For the same compound, the concentration in plasma with Rat [29] turned out to be 676 ng/mL; in the data set on Rat [32], 324 ng/mL; in the data set on Rat [34] it was 16300 ng/mL; with Rat [35] it was 2900 ng/mL. Further, the concentration in heart with Rat [30] came out at 1930 ng/g; in the data set on Rat [31], 558 ng/g; in the data set on Rat [33], 1040 ng/g; with Rat [36], 620 ng/g.

On to `O=C(O)C(Cl)Cl` [dichloroacetic acid], for which the concentration in plasma with Rat [38] is 720 ng/mL; in the data set with Rat [39] it was 2320 ng/mL; with Rat [40], 10600 ng/mL.
